3 compounds from ChEMBL document CHEMBL3396988, “Structure-based design of inhibitors of coagulation factor XIa with novel P1 moieties” (Bioorg Med Chem Lett, 2015) can be followed below.

The term Ki denotes a dissociation constant, usually derived from enzyme kinetics or from competition with a known ligand. In general, half-life refers to how long it takes for the measured level to halve. Read a low half-life as fast loss. As usually defined, the bioavailability is the share of a dose that reaches the circulation, judged against a reference dose that is usually intravenous. Read a low bioavailability as little systemic uptake.

One data set has as its target Kallikrein-1 (Homo sapiens, UniProt P06870). Nature of the data set: Inhibition of tissue kallikrein (unknown origin).
A short description of data set [1]: Inhibition of chymotrypsin (unknown origin). More on the design: species or system Homo sapiens.
The next data set has as its target Plasminogen (Homo sapiens, UniProt P00747). The experiment in a line: Inhibition of plasmin (unknown origin).
Data set [2] deals with Tissue-type plasminogen activator (Homo sapiens, UniProt P00750). Nature of the data set: Inhibition of TPA (unknown origin).
Data set [3] addresses T1, Coagulation factor XI (Homo sapiens, UniProt P03951). The experiment in a line: Inhibition of human coagulation factor 11a at 25 degC.
Data set [4] is described as follows: Permeability of the compound at pH 7.4 by PAMPA method. Format: ADME. To be noted: read-out: permeability.
Data set [5] can be described thus: Clearance in dog at 1 mg/kg, po or 0.4 mg/kg, iv administered in discrete format. Format: ADME, organism-based, Canis lupus familiaris. Particulars: in vivo.
A short description of data set [6]: Volume of distribution at steady state in dog at 1 mg/kg, po or 0.4 mg/kg, iv administered in discrete format. Format: ADME, organism-based, Canis lupus familiaris. To be noted: in vivo, read-out: Vdss.
Data set [7] in a line: Half life in dog at 1 mg/kg, po or 0.4 mg/kg, iv administered in discrete format. Format: ADME, organism-based, Canis lupus familiaris. Particulars: in vivo.
Data set [8] can be described thus: Oral bioavailability in dog at 1 mg/kg administered in discrete format. Format: ADME, organism-based, Canis lupus familiaris. To be noted: in vivo.
The target in a further data set is T2, Coagulation factor VII (Homo sapiens, UniProt P08709).
T2 sequence (P08709 whole entry): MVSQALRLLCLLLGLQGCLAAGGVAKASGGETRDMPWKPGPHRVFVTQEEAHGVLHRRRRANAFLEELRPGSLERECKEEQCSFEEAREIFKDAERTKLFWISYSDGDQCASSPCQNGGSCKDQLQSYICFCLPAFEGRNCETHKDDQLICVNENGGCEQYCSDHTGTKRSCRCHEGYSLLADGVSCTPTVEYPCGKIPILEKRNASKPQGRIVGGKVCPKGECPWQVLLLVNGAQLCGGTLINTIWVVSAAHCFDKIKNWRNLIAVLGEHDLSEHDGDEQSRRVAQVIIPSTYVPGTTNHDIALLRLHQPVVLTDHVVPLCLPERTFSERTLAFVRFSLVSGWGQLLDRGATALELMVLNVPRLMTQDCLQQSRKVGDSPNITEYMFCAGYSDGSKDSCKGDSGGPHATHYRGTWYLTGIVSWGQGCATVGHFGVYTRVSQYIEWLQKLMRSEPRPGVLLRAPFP
The experiment in a line: Inhibition of coagulation factor 7a (unknown origin).

Another data set concerns the target Coagulation factor IX (Homo sapiens, UniProt P00740). The experiment in a line: Inhibition of coagulation factor 9a (unknown origin).
In a further data set the target is Coagulation factor X (Homo sapiens, UniProt P00742). Nature of the data set: Inhibition of coagulation factor 10a (unknown origin).
For another data set, the target named is Prothrombin (Homo sapiens, UniProt P00734). The experiment in a line: Inhibition of thrombin (unknown origin).
In the next data set the target is Plasma kallikrein (Homo sapiens, UniProt P03952). Nature of the data set: Inhibition of plasma kallikrein (unknown origin).
The target of a further data set is Trypsin (Homo sapiens, UniProt P07477+P07478+P35030). The experiment in a line: Inhibition of human trypsin at 25 degC. Format: protein assay.
Data set [9] is described as follows: Clearance in dog at 0.5 mg/kg, po or 0.4 mg/kg, iv administered in cassette format. Format: ADME, organism-based, Canis lupus familiaris. To be noted: in vivo.
Data set [10] can be described thus: Volume of distribution at steady state in dog at 0.5 mg/kg, po or 0.4 mg/kg, iv administered in cassette format. Format: ADME, organism-based, Canis lupus familiaris. To be noted: in vivo, read-out: Vdss.
Data set [11] is described as follows: Half life in dog at 0.5 mg/kg, po or 0.4 mg/kg, iv administered in cassette format. Format: ADME, organism-based, Canis lupus familiaris. To be noted: in vivo.
Data set [12] in a line: Oral bioavailability in dog at 0.5 mg/kg administered in cassette format. Format: ADME, organism-based, Canis lupus familiaris. Particulars: in vivo.
The test system of another data set is Plasma. Nature of the data set: Anticoagulant activity in human plasma assessed as compound level causing 1.5 times increase in activated partial […] time. Format: functional.
Data set [13] deals with T1, Coagulation factor XI. The experiment in a line: Inhibition of human coagulation factor 11a at 37 degC.

T1 sequence (P03951 19-387 limits assumed): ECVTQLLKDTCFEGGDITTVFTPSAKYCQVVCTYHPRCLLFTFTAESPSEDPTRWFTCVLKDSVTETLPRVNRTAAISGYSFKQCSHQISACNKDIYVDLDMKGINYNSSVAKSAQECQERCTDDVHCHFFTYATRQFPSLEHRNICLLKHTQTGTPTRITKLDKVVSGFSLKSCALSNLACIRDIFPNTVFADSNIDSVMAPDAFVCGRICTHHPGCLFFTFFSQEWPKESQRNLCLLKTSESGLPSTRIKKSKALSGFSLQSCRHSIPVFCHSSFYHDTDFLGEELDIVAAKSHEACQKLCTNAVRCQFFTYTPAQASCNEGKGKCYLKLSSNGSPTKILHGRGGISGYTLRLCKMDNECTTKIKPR
T1 sequence (P03951 388-625 limits assumed): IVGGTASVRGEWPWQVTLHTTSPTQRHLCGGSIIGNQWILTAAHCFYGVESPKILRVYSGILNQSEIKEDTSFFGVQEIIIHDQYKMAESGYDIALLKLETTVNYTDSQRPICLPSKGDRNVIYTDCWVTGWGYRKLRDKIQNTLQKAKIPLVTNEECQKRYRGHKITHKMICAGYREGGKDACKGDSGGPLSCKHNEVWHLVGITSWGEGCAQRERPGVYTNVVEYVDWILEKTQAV
Sequence of Kallikrein-1 (P06870 whole entry): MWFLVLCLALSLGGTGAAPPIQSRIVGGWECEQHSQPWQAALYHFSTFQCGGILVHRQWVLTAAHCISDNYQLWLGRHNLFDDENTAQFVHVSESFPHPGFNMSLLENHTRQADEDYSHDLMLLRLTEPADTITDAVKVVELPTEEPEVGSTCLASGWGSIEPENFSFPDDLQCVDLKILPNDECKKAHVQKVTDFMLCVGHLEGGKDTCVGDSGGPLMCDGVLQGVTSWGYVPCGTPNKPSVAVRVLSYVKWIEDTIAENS
Sequence of Plasminogen (P00747 97-580 limits assumed): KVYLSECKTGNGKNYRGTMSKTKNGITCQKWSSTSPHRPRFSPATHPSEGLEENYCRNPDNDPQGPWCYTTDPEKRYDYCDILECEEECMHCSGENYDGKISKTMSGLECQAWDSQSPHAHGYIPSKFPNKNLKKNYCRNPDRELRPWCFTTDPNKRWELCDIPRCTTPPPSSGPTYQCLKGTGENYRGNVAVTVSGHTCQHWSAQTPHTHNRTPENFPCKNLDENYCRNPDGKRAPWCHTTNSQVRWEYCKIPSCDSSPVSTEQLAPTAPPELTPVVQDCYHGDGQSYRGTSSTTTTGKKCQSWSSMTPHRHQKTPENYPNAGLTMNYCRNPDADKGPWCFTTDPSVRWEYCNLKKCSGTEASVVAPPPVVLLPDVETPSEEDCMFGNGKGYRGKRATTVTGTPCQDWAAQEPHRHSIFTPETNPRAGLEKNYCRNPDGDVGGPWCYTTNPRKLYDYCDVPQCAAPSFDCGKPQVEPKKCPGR
Sequence of Plasminogen (P00747 581-810 limits assumed): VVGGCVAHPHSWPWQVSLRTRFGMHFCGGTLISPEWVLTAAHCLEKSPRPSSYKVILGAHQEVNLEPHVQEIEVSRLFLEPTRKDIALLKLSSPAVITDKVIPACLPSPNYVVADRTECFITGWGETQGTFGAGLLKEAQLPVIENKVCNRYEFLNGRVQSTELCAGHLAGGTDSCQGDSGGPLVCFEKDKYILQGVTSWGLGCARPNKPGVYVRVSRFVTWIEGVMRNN
Sequence of Tissue-type plasminogen activator (P00750 whole entry): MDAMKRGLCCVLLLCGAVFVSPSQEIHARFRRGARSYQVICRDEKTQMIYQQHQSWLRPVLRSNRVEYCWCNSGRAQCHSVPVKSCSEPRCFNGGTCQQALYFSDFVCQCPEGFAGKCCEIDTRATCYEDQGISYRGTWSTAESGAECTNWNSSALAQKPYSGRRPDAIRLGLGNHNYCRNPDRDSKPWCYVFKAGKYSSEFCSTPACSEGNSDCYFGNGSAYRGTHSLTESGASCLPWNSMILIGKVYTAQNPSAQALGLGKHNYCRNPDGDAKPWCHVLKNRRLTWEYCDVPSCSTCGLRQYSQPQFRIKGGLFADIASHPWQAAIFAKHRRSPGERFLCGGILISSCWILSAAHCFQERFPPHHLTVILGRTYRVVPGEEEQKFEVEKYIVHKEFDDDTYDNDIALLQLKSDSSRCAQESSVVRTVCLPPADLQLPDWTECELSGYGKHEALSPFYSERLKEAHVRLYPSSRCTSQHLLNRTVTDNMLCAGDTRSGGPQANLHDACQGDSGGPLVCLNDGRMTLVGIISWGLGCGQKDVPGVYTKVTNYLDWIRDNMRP
Sequence of Plasma kallikrein (P03952 20-390 limits assumed): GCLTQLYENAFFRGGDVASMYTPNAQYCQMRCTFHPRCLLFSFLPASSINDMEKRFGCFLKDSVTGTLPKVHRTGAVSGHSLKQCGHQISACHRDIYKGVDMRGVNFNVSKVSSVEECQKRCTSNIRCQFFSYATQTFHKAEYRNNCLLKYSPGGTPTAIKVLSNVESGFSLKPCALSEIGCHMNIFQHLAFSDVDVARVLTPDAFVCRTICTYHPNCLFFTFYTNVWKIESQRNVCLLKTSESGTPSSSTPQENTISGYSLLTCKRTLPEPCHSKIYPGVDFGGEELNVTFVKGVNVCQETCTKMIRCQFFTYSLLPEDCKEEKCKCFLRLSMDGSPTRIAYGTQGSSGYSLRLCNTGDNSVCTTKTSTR
Sequence of Plasma kallikrein (P03952 391-638 limits assumed): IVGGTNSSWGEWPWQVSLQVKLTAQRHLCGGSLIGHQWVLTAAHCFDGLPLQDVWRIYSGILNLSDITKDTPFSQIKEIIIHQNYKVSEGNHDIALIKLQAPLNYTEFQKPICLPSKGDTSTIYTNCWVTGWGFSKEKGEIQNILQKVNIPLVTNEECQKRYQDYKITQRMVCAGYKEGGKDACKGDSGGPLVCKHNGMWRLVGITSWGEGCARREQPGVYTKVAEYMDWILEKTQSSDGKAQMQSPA
Sequence of Coagulation factor IX (P00740 47-191 limits assumed): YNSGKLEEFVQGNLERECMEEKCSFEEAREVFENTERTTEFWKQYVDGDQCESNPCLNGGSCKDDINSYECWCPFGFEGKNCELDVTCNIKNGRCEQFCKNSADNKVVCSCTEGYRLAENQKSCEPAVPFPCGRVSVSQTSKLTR
Sequence of Coagulation factor IX (P00740 227-461 limits assumed): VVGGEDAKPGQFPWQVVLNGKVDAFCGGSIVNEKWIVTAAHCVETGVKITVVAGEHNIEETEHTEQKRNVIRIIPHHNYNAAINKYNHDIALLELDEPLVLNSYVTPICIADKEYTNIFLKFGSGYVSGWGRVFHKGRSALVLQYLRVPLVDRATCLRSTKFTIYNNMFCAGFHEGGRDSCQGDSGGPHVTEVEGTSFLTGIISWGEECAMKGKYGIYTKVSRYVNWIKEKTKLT
Sequence of Coagulation factor X (P00742 41-179 limits assumed): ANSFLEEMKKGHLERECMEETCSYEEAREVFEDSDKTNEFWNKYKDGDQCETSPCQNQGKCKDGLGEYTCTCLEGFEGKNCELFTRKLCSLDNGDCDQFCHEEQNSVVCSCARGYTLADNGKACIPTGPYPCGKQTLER
Sequence of Coagulation factor X (P00742 235-488 limits assumed): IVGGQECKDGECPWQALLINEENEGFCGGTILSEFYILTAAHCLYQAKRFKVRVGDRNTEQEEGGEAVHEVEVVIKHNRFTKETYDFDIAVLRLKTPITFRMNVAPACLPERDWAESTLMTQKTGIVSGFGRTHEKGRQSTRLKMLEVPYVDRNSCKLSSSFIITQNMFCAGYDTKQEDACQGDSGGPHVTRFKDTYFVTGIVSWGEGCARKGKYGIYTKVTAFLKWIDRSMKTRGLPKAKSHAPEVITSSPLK

`NC[C@H]1CC[C@H](C(=O)N[C@@H](Cc2ccccc2)c2nc(-c3ccc4c(N)n[nH]c4c3)c(Cl)[nH]2)CC1`: the Ki was 650 nM at Kallikrein-1; above 20800 nM in [1]; 8400 nM on Plasminogen; above 22000 nM in [2]; 0.31 nM at Coagulation factor XI [3]. Further, the Papp in [4] is 0.03 ×10⁻⁶ cm/s. The clearance in [5] was determined as 11.2 mL/min/kg. Besides, the Vd in [6] was 0.92 L/kg. In [7], this compound had a half-life of 1.88 h. This compound also had a bioavailability in data set [8] of 3.6%.
On to `Nc1n[nH]c2cc(-c3nc([C@H](Cc4ccccc4)NC(=O)/C=C/c4cc(Cl)ccc4-n4cnnn4)[nH]c3Cl)ccc12`, for which the Ki on Coagulation factor VII is above 13000 nM; at Coagulation factor IX it was above 35000 nM; on Coagulation factor X, above 1000 nM; at Prothrombin, above 13000 nM; at Plasma kallikrein, 41 nM; on Kallikrein-1 it was 1200 nM. The Ki was 660 nM in [1]; above 24000 nM at Plasminogen; 19000 nM in data set [2]; 1.2 nM on Coagulation factor XI [3]; above 6200 nM at Trypsin. In addition, the clearance in data set [9] came to 16 mL/min/kg. Besides, the Vd in data set [10] was 0.8 L/kg. In [11], this compound had a half-life of 2.2 h. The compound further returned a bioavailability in data set [12] of 0%. Besides, in the data set with Plasma, the Activity was 3 µM.
For `Nc1n[nH]c2cc(-c3c[nH]c([C@H](Cc4ccccc4)NC(=O)/C=C/c4cc(Cl)ccc4-n4cnnn4)n3)ccc12`, the Activity with Plasma is 4 µM. Besides, the Ki on Coagulation factor XI [13] was 5 nM.
